{"source": "paper PMC4247381", "about": "“Control of somatic membrane potential in nociceptive neurons and its implications for peripheral nociceptive transmission” (Pain, 2014)", "key": {"Kv7.2/Kv7.3": {"molecular_target": "T1, Kv7.2/Kv7.3 (Homo sapiens, UniProt O43525+O43526)", "T1 construct": "gene KCNQ2; with Kv7.3 (KCNQ3)", "T1 sequence (O43526 whole entry)": "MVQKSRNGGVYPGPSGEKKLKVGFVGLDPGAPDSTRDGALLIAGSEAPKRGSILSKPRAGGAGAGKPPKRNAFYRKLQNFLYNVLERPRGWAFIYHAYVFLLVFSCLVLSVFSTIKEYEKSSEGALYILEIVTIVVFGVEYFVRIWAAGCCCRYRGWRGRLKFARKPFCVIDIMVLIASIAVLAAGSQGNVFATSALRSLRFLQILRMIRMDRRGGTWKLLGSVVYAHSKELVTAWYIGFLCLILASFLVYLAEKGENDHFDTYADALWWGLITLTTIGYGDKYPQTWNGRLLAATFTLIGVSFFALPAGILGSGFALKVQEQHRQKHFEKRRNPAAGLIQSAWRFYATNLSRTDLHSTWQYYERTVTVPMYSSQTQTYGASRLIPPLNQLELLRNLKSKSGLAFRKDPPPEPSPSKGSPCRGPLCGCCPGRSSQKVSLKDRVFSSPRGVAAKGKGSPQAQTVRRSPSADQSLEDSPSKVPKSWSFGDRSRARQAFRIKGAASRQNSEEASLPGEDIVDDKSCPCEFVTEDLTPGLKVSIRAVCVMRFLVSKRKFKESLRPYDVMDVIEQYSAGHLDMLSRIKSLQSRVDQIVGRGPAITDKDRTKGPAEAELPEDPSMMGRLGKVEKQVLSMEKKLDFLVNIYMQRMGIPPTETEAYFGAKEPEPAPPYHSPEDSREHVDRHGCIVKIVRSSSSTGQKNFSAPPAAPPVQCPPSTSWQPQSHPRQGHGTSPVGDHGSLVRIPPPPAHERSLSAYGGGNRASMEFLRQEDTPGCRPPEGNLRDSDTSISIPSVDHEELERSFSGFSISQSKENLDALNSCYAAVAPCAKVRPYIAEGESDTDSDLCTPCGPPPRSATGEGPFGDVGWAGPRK", "T1 sequence (O43525 whole entry)": "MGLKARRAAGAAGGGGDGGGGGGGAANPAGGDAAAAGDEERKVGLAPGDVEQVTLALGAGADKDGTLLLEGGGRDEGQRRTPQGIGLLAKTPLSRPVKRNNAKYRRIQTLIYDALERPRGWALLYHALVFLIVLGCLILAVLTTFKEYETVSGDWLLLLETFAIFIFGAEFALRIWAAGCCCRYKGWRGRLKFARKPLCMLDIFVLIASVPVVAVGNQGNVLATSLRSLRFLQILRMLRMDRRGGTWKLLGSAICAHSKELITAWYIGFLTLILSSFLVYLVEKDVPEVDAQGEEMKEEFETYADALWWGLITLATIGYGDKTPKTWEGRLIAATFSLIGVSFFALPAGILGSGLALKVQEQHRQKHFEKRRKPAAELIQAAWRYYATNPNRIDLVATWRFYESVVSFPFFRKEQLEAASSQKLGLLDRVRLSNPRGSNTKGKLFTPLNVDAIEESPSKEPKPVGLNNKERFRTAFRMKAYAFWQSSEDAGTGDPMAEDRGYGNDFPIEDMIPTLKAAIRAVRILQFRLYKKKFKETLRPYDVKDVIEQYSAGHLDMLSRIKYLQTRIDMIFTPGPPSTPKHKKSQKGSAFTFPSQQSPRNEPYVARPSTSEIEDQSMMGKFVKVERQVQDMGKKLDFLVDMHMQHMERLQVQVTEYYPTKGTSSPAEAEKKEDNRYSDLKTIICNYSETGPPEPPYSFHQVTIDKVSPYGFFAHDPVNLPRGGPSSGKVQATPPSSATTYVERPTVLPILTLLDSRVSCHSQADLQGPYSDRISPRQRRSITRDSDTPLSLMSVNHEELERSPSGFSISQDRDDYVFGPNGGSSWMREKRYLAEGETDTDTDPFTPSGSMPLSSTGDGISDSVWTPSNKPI", "test": "Rb+ efflux assay and whole-cell patch clamp in CHO cells expressing Kv7.[…]/Kv7.[…] (activator)", "format": "cell-based"}, "Cav3.2": {"molecular_target": "T2, Cav3.2 (Homo sapiens, UniProt O95180)", "T2 construct": "gene CACNA1H", "T2 sequence (O95180 whole entry)": "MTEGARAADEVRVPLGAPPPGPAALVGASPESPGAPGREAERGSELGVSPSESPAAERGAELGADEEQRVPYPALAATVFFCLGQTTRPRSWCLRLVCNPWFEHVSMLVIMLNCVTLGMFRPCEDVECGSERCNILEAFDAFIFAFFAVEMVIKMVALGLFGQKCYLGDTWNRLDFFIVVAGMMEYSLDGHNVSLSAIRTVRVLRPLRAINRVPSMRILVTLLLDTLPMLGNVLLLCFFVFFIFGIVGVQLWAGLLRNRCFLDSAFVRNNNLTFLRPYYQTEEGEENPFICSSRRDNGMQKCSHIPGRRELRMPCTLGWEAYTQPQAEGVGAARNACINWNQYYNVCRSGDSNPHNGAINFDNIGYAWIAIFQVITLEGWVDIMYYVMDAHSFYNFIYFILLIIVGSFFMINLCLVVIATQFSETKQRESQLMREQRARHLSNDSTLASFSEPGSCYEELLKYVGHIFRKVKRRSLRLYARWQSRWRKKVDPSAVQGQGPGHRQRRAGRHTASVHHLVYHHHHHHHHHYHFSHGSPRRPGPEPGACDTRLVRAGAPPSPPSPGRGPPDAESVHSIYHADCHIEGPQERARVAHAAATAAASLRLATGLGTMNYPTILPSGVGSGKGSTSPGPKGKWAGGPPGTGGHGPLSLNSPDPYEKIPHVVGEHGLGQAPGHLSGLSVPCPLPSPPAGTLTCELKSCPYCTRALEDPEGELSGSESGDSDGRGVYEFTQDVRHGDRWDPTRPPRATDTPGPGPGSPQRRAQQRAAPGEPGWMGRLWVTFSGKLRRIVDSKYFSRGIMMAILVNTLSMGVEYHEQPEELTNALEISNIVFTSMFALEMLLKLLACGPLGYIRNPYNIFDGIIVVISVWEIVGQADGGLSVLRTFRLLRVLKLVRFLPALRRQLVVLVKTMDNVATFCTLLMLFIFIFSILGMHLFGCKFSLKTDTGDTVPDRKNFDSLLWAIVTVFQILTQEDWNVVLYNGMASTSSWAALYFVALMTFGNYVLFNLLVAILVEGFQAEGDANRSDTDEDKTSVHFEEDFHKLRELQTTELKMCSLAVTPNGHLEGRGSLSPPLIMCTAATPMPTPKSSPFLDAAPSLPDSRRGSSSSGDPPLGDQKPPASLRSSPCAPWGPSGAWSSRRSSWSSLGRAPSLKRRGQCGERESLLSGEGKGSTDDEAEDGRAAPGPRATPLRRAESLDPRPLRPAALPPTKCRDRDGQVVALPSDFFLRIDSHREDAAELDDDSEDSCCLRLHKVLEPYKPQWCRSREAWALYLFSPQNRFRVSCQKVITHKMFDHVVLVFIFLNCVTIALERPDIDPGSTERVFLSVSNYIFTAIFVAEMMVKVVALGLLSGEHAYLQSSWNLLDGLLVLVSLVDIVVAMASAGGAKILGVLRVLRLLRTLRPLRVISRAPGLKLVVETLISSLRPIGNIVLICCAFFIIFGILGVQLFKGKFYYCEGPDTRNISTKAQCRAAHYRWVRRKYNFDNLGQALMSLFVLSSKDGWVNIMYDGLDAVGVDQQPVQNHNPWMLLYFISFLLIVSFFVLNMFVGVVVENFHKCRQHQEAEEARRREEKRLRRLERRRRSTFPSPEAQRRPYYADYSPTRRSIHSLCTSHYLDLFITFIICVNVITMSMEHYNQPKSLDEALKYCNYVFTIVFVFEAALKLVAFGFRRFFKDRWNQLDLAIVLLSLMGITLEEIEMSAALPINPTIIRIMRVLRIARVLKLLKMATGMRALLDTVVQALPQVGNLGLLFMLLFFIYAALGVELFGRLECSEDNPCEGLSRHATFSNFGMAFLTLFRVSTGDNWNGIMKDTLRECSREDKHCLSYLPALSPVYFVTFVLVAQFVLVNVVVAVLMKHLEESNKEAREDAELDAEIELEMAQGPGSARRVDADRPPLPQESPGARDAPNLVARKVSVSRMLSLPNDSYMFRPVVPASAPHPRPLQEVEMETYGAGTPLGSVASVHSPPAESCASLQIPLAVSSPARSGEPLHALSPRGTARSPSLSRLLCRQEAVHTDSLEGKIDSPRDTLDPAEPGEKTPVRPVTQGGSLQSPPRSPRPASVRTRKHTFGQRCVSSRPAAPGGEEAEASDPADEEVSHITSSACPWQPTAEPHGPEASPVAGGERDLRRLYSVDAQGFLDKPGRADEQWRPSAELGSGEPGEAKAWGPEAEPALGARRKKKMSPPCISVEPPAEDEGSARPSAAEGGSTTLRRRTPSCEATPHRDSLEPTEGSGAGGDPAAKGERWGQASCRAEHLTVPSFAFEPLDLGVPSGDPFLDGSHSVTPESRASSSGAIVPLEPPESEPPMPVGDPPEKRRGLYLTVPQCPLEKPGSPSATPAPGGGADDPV", "test": "whole-cell patch clamp of recombinant human Cav3.[…] in HEK293 cells (enhancer)", "format": "cell-based"}}, "note": "Where two headings read alike, the source gives them in different places."}
{"smiles": "Oc1c(Cl)cc(Cl)cc1Sc1cc(Cl)cc(Cl)c1O", "note": "[BITH, Bithionol]", "values": [{"measurement": "EC50", "setting": "Kv7.2/Kv7.3; read-out: EC50", "value": "4900 ± 1080", "unit": "nM"}]}
{"smiles": "CCOC(=O)Nc1ccc(NCc2ccc(F)cc2)cc1N", "note": "[RTG, Retigabine]", "values": [{"measurement": "EC50", "setting": "Kv7.2/Kv7.3", "value": "700 ± 90", "unit": "nM"}]}
{"smiles": "O=C1N=C2C=CC=CN2C12Cc1ccccc1C2", "note": "[ST101, spiro[imidazo[1,2-a]pyridine-3,2-indan]-2(3H)-one]", "values": [{"measurement": "EC50", "setting": "Cav3.2", "value": "0.12 ± 0.04", "unit": "nM"}]}
